Measurements reported in article PMC9033141, “Beta and Gamma Amino Acid-Substituted Benzenesulfonamides as Inhibitors of Human Carbonic Anhydrases” (Pharmaceuticals, 2022).

Columns and labels:
[1] = molecular target: T1, CAIII (Homo sapiens, UniProt P07451); experiment: Fluorescent thermal shift assay (FTSA), CAIII; type: binding; conditions: for Intrinsic Gibbs energy change (ΔGint), CAIII: 37 °C, calculated (Equation 5); for Kd: FTSA, pH 7.0, 37 °C, read-out: Observed Dissociation Constant (Kd_obs), CAIII
T1 construct: made in house; host or cells: E. coli
Method: (§1) Human CA isozymes were expressed in E. coli (CAI, II, III, IV, VA, VB, VII, XII, XIII, XIV) or mammalian cells (CAVI and CAIX), chromatographically purified following the published protocols [47], and stored at −80 °C. The protein concentration was determined by UV absorption at 280 nm using Beer–Lambert law.
(§2) The QIAGEN Rotor-Gene Q was used to carry out the experiments, with a blue channel used for excitation (365 nm) and detection (460 nm). FTSA in this case relies on an extrinsic probe, 8-anilino-1-naphthalenesulfonate (ANS), to detect the fluorescence increase during protein denaturation, from which protein melting temperature (Tm) can be determined. […] The observed affinity of ligands for CAs was determined by plotting the Tm as a function of ligand concentration and then fitting a curve as described previously [48]. […] Samples were heated from 25 °C to 99 °C at the speed of 1 °C/min.
(§3) The intrinsic thermodynamic parameters were calculated as described in [40]. The intrinsic reaction of inhibitor binding to CA is shown in Equation (1). […] It is known that CA proteins bind sulfonamides only when water molecules are coordinated to the Zn(II) ion, and sulfonamides only bind to CA proteins when their amino group is deprotonated (confirmed by neutron crystallography [53, 54, 55]):(1) CA Zn^II−H2O+RSO2NH^−⇄ CA Zn^II−NH SO2R+H2O
(§4) When calculating Kd_int values, these protein and ligand fractions from Equation (1) have to be accounted for (Equations (2) and (3)). The intrinsic dissociation constant is calculated by multiplying Kd_obs value by the corresponding fractions of protein and ligand (Equation (4)). (2) fRSO2NH^−=10^pH−pKa_RSO2NH2/1+10^pH−pKa_RSO2NH2 (3) fCAZnH2O=1−10^pH−pKa_CAZnH2O/1+10^pH−pKa_CAZnH2O (4) Kd_int=Kd_obs×fRSO2NH^−×fCAZnH2O (5) ΔGint0=RTlnKd_int
(§5) The intrinsic standard Gibbs energy changes upon binding were calculated using Equation (5). Here, R—universal ideal gas constant (8.3144 J/mol·K), T—absolute temperature (310.15 K).

[2] = molecular target: T2, CAIV (Homo sapiens, UniProt P22748); experiment: Fluorescent thermal shift assay (FTSA), CAIV; type: binding; conditions: for Intrinsic Gibbs energy change (ΔGint), CAIV: 37 °C, calculated (Equation 5); for Kd: FTSA, pH 7.0, 37 °C, read-out: Observed Dissociation Constant (Kd_obs), CAIV;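 on all read-outs here: recombinant human enzyme, thermal denaturation followed by ANS fluorescence, melting temperature versus ligand concentration fitted for Kd_obs, intrinsic value corrected for deprotonated sulfonamide and Zn-bound water fractions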
T2 construct: made in house; host or cells: E. coli
Method: as §1, §2, §3, §4, §5

[3] = molecular target: T3, CAXII (Homo sapiens, UniProt O43570); experiment: biochemical; type: binding; conditions: for Intrinsic Gibbs energy change (ΔGint), CAXII: 37 °C, calculated (Equation 5); for Kd: FTSA, pH 7.0, 37 °C, read-out: Observed Dissociation Constant (Kd_obs), CAXII
T3 construct: made in house; host or cells: E. coli
Method: as §1, §2
The intrinsic thermodynamic parameters were calculated as described in [40]. The intrinsic reaction of inhibitor binding to CA is shown in Equation (1).
as §4, §5

[4] = molecular target: T4, CAVI (Homo sapiens, UniProt P23280); experiment: Fluorescent thermal shift assay (FTSA), CAVI; type: binding; conditions: for Intrinsic Gibbs energy change (ΔGint), CAVI: 37 °C, calculated (Equation 5); for Kd: FTSA, pH 7.0, 37 °C, read-out: Observed Dissociation Constant (Kd_obs), CAVI;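 on all read-outs here: human CAVI expressed in mammalian cells, ANS fluorescence tracked during thermal unfolding, melting temperature fitted against ligand concentration, intrinsic values corrected for deprotonated sulfonamide and Zn-bound water fractions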
T4 construct: made in house
Method: as §1, §2, §3, §4, §5

[5] = molecular target: T5, CAI (Homo sapiens, UniProt P00915); experiment: biochemical; type: binding; conditions: for Intrinsic Gibbs energy change (ΔGint), CAI: 37 °C, calculated (Equation 5); for Kd: FTSA, pH 7.0, 37 °C, read-out: Observed Dissociation Constant (Kd_obs), CAI
T5 construct: made in house; host or cells: E. coli

[6] = molecular target: T6, CAVA (Homo sapiens, UniProt P35218); experiment: Fluorescent thermal shift assay (FTSA), CAVA; type: binding; conditions: for Kd: FTSA, pH 7.0, 37 °C, read-out: Observed Dissociation Constant (Kd_obs), CAVA
T6 construct: made in house; host or cells: E. coli
Method: as §1, §2, §3, §4, §5

[7] = molecular target: T7, CAVB (Homo sapiens, UniProt Q9Y2D0); experiment: Fluorescent thermal shift assay (FTSA), CAVB; type: binding; conditions: for Intrinsic Gibbs energy change (ΔGint), CAVB: 37 °C, calculated (Equation 5); for Kd: FTSA, pH 7.0, 37 °C, read-out: Observed Dissociation Constant (Kd_obs), CAVB
T7 construct: made in house; host or cells: E. coli
Method: as §1, §2, §3, §4, §5

[8] = molecular target: T8, CAII (Homo sapiens, UniProt P00918); experiment: biochemical; type: binding; conditions: for Intrinsic Gibbs energy change (ΔGint), CAII: 37 °C, calculated (Equation 5); for Kd: FTSA, pH 7.0, 37 °C, read-out: Observed Dissociation Constant (Kd_obs), CAII
T8 construct: made in house; host or cells: E. coli

[9] = molecular target: T9, CAIX (Homo sapiens, UniProt Q16790); experiment: biochemical; type: binding; conditions: for Intrinsic Gibbs energy change (ΔGint), CAIX: 37 °C, calculated (Equation 5); for Kd: FTSA, pH 7.0, 37 °C, read-out: Observed Dissociation Constant (Kd_obs), CAIX
T9 construct: made in house

[10] = molecular target: T10, CAXIV (Homo sapiens, UniProt Q9ULX7); experiment: Fluorescent thermal shift assay (FTSA), CAXIV; type: binding; conditions: for Intrinsic Gibbs energy change (ΔGint), CAXIV: 37 °C, calculated (Equation 5); for Kd: FTSA, pH 7.0, 37 °C, read-out: Observed Dissociation Constant (Kd_obs), CAXIV;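 on all read-outs here: recombinant human CA XIV from E. coli, ANS-based thermal shift: Kd_obs fitted from melting temperature versus ligand concentration, ΔGint from Kd_obs corrected for deprotonated sulfonamide and Zn-water fractions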
T10 construct: made in house; host or cells: E. coli
Method: as §1, §2, §3, §4, §5

[11] = molecular target: T11, CAXIII (Homo sapiens, UniProt Q8N1Q1); conditions: 37 °C; calculated (Equation 5);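 further: recombinant human CAXIII melting temperature tracked by ANS fluorescence in thermal shift assay, Tm fitted against ligand concentration, intrinsic value corrects Kd for deprotonated sulfonamide and Zn-bound water fractions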
[12] = molecular target: T11, CAXIII; experiment: biochemical; conditions: Observed Dissociation Constant (Kd_obs), FTSA, pH 7.0, 37 °C
[13] = molecular target: T12, CAVII (Homo sapiens, UniProt P43166); experiment: Fluorescent thermal shift assay (FTSA), CAVII; type: binding; conditions: for Intrinsic Gibbs energy change (ΔGint), CAVII: 37 °C, calculated (Equation 5); for Kd: FTSA, pH 7.0, 37 °C, read-out: Observed Dissociation Constant (Kd_obs), CAVII
T12 construct: made in house; host or cells: E. coli
Method: as §1, §2, §3, §4, §5

[14] = Determination of compound sulfonamide group pKa (UV-Vis spectra at different pH); type: physicochemical; conditions: universal buffer; spectrophotometric, 37 °C; read-out: Sulfonamide pKa
Method: To calculate the intrinsic thermodynamic parameters of compound binding to CA isozymes, the pKa values of the sulfonamide group and the water molecule bound to the Zn(II) ion at the active site of CA proteins had to be determined. The pKa values for CA isozyme-bound water molecules were taken from, CAI—8.1; CAII—6.9; CAIII—6.5; CAIV—6.6; CAVA—6.7; CAVB—7.0; CAVI—6.0; CAVII—6.8; CAIX—6.6; CAXII—6.8; CAXIII—8.0; CAXIV—6.1. […] The pKa values were calculated as described previously in [28, 52] by normalizing the absorbance, plotting it as a function of pH, then fitting to the Henderson–Hasselbalch equation using the least square method (Figure S105).
Since the pKa values were only able to be measured for compound group 26–36, due to universal buffer pH limitations, intrinsic thermodynamic parameters were not calculated for compounds 2(a,b)–25(a,b), only for compounds 26–36 using experimentally obtained pKa values when possible and using the average pKa value mentioned above for compounds not measured.
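Wherever Observed Dissociation Constant (Kd obs), CAXII is given: recombinant CAXII made in E. coli, ANS-fluorescence thermal shift with affinity fitted from Tm versus ligand concentration, intrinsic energy from Kd_obs corrected for deprotonated sulfonamide and Zn-water fractions.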

T5 sequence (P00915 whole entry): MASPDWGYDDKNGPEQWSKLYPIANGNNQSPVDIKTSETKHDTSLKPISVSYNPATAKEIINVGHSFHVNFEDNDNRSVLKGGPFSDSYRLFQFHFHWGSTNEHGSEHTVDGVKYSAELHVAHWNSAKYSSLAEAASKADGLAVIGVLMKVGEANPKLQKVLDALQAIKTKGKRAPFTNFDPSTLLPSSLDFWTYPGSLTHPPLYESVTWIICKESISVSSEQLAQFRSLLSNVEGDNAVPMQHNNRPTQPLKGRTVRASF
T2 sequence (P22748 19-312): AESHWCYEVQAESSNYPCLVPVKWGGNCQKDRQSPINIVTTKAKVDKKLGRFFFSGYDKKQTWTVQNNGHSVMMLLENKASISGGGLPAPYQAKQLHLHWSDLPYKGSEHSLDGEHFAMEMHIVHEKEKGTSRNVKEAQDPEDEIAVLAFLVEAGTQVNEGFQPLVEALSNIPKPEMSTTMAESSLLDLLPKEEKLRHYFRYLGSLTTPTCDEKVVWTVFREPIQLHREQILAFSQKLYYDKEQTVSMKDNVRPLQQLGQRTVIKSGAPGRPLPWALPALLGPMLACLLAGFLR
T10 sequence (Q9ULX7 16-337): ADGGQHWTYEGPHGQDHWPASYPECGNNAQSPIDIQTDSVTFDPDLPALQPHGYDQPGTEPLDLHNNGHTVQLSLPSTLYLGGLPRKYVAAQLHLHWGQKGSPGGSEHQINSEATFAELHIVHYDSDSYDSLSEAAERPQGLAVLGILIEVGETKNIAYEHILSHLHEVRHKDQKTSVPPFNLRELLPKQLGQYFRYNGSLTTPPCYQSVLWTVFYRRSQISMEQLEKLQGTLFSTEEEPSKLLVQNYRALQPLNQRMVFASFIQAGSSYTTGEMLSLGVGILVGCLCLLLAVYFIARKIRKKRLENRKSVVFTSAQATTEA
T4 sequence (P23280 21-290 limits assumed): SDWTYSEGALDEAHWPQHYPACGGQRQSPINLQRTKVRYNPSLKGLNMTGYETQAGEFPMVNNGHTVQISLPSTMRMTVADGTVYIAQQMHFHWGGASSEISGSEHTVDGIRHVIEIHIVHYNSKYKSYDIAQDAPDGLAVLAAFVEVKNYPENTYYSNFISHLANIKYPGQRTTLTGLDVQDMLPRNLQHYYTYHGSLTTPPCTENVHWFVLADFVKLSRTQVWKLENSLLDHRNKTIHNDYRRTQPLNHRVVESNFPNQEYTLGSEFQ
T3 sequence (O43570 25-354): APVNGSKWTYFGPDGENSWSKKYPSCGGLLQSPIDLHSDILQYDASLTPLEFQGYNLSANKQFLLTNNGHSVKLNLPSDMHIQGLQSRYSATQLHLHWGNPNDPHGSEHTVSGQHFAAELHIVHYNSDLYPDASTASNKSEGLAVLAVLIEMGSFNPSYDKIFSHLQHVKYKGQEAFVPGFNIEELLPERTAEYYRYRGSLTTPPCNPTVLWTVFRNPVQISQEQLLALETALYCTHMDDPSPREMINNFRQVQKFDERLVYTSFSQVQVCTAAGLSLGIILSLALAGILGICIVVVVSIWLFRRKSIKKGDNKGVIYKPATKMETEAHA
T12 sequence (P43166 whole entry): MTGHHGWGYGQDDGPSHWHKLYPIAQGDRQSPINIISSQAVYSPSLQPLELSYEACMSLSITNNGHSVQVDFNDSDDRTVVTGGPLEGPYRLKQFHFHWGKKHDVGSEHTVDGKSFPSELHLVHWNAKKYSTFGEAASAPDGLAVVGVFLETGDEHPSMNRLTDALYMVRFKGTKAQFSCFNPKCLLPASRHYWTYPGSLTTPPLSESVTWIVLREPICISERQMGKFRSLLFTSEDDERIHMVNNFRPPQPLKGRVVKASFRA
T11 sequence (Q8N1Q1 whole entry): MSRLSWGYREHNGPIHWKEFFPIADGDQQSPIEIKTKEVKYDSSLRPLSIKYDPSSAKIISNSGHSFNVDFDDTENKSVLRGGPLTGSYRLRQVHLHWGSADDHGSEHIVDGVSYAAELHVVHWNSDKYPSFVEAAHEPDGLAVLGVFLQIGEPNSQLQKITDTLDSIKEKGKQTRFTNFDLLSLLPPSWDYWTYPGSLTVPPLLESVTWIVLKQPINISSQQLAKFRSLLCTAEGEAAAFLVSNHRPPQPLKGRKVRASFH
T7 sequence (Q9Y2D0 34-317): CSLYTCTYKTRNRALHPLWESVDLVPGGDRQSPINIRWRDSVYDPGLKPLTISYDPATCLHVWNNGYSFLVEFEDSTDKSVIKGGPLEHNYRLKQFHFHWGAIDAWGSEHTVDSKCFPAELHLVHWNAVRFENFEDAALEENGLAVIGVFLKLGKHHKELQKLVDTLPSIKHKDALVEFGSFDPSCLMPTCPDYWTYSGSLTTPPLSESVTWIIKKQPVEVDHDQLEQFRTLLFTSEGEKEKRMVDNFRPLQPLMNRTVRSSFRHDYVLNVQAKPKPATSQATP
T6 sequence (P35218 39-305): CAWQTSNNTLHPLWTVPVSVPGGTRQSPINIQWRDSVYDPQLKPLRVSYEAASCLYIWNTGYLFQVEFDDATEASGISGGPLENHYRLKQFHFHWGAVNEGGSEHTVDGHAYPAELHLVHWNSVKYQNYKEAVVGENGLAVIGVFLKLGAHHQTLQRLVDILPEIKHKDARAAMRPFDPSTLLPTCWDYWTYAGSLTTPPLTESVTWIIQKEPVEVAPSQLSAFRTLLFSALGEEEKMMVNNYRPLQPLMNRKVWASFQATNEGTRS
T1 sequence (P07451 whole entry): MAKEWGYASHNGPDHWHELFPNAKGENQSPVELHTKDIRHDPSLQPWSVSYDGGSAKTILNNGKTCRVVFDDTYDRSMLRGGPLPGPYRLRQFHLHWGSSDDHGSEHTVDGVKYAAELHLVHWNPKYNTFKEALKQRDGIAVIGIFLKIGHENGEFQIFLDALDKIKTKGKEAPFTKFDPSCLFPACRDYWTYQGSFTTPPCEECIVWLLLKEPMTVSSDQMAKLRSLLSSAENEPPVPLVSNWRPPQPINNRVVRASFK

SMILES | Kd [1] [nM] | Intrinsic Gibbs energy change (ΔGint), CAIV [2] [kcal/mol] | Kd [2] [nM] | Intrinsic Gibbs energy change (ΔGint), CAXII [3] [kcal/mol] | Kd [3] [nM] | Intrinsic Gibbs energy change (ΔGint), CAVI [4] [kcal/mol] | Kd [4] [nM] | Intrinsic Gibbs energy change (ΔGint), CAI [5] [kcal/mol] | Kd [5] [nM] | Kd [6] [nM] | Intrinsic Gibbs energy change (ΔGint), CAVB [7] [kcal/mol] | Kd [7] [nM] | Intrinsic Gibbs energy change (ΔGint), CAII [8] [kcal/mol] | Kd [8] [nM] | Intrinsic Gibbs energy change (ΔGint), CAIX [9] [kcal/mol] | Kd [9] [nM] | Intrinsic Gibbs energy change (ΔGint), CAXIV [10] [kcal/mol] | Intrinsic Gibbs energy change (ΔGint), CAXIII [11] [kcal/mol] | Kd [12] [nM] | Intrinsic Gibbs energy change (ΔGint), CAVII [13] [kcal/mol] | other results
Cc1csc(N(CCC(=O)O)c2ccc(S(N)(=O)=O)cc2)n1 [Compound 27, 3-((4-Methylthiazol-2-yl)(4-sulfamoylphenyl)amino)propanoic acid] | 63000 | -13.9 | 1400 | -15 | 180 | -13 | 18000 | -15 | 67 | ≥ 200000 | -14.1 | 560 | -14.7 | 220 | -16 | 48 | -15.8 | -13.5 | 870 | -14.7 | Intrinsic Gibbs energy change (ΔGint), CAIII [1]: -11.6 kcal/mol; melting point: 162 to 163 °C; Kd [10]: 170 nM; Kd [13]: 250 nM; pKa [14]: 10.4
Cc1csc(N(CCC(=O)NN)c2ccc(S(N)(=O)=O)cc2)n1 [Compound 29, 4-((3-Hydrazineyl-3-oxopropyl)(4-methylthiazol-2-yl)amino)benzenesulfonamide] | ≥ 200000 | -13.7 | 1500 | -13.9 | 830 | -12.8 | 20000 | -14.4 | 150 | ≥ 200000 | -15.2 | 77 | -14.3 | 380 | -15.5 | 80 | -15.8 | -12.9 | 1700 | -14 | melting point: 167 to 168 °C; Kd [10]: 130 nM; Kd [13]: 670 nM; pKa [14]: 10.3
NS(=O)(=O)c1ccc(N(CCC(=O)O)c2nc(-c3ccc(Cl)cc3)c(Cl)s2)cc1 [Compound 36, 3-((5-Chloro-4-(4-chlorophenyl)thiazol-2-yl)(4-sulfamoylphenyl)amino)propanoic acid] | 17000 | -13.1 | 3300 | -14.9 | 120 | -13.4 | 6300 | -15.5 | 20 | ≥ 200000 | -14 | 400 | -15.5 | 23 to 40 | -16.1 | 23 | -15.6 | -15.1 | 23 to 40 | -15.7 | Intrinsic Gibbs energy change (ΔGint), CAIII [1]: -12.2 kcal/mol; Intrinsic Gibbs energy change (ΔGint), CAVA ([6]; 37 °C, calculated (Equation 5)): ≤ -10.4 kcal/mol; Kd [13]: 33 nM; pKa [14]: 10.2
